Tests used:
Assay type in all cases: functional, cell-based
[1] = target: T1, 5-hydroxytryptamine receptor 2B (Homo sapiens, UniProt P41595); assay: Agonist activity at human 5HT2B receptor stably expressed in Flp-In-T-REx-293 cells assessed as increase in Gq-mediated calcium flux by Fluo-4 direct dye based FLIPR Tetra assay; conditions: read-out: EC50
[2] = target: T2, 5-hydroxytryptamine receptor 2C (Homo sapiens) (UniProt P28335); assay: Agonist activity at human 5HT2C receptor stably expressed in Flp-In-T-REx-293 cells assessed as maximal Gq-mediated calcium flux by Fluo-4 direct dye based FLIPR Tetra assay relative to control
T2 sequence (whole entry): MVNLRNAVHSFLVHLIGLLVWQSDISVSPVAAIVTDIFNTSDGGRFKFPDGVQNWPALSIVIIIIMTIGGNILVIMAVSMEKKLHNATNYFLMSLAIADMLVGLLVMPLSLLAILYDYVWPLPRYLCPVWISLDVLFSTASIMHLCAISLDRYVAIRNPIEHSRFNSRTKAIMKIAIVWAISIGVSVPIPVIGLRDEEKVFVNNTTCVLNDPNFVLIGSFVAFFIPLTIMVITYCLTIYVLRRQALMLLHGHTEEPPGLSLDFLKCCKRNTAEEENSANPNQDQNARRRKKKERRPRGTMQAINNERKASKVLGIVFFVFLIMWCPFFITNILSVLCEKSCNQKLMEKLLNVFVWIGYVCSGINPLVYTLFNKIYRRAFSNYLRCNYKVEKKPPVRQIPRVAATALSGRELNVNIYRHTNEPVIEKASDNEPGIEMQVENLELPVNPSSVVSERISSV

[3] = target: T3, 5-hydroxytryptamine receptor 2C (Homo sapiens, UniProt P28335); assay: Agonist activity at human 5HT2C receptor stably expressed in Flp-In-T-REx-293 cells assessed as increase in Gq-mediated calcium flux by Fluo-4 direct dye based FLIPR Tetra assay
T3 sequence (P28335 whole entry): T2 sequence (whole entry)

[4] = target: T4, 5-hydroxytryptamine receptor 2A (Homo sapiens, UniProt P28223); assay: Agonist activity at human 5HT2A receptor stably expressed in Flp-In-T-REx-293 cells assessed as maximal Gq-mediated calcium flux by Fluo-4 direct dye based FLIPR Tetra assay relative to control
[5] = target: T1, 5-hydroxytryptamine receptor 2B; assay: Agonist activity at human 5HT2B receptor stably expressed in Flp-In-T-REx-293 cells assessed as maximal Gq-mediated calcium flux by Fluo-4 direct dye based FLIPR Tetra assay relative to control; conditions: filed as agonist
[6] = target: T4, 5-hydroxytryptamine receptor 2A; assay: Agonist activity at human 5HT2A receptor stably expressed in Flp-In-T-REx-293 cells assessed as increase in Gq-mediated calcium flux by Fluo-4 direct dye based FLIPR Tetra assay

T4 sequence (P28223 whole entry): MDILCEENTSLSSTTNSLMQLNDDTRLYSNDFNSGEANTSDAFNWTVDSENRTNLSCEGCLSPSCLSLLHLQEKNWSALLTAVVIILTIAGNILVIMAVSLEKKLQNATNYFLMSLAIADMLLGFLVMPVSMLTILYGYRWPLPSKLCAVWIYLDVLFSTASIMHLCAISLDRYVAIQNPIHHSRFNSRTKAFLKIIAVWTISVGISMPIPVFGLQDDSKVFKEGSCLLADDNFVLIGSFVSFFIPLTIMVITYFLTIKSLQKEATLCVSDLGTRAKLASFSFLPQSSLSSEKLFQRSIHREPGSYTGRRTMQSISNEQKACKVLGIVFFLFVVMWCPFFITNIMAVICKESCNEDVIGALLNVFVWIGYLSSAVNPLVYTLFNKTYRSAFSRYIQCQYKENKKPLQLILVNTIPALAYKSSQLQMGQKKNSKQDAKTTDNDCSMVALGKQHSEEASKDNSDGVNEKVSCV
T1 sequence (P41595 whole entry): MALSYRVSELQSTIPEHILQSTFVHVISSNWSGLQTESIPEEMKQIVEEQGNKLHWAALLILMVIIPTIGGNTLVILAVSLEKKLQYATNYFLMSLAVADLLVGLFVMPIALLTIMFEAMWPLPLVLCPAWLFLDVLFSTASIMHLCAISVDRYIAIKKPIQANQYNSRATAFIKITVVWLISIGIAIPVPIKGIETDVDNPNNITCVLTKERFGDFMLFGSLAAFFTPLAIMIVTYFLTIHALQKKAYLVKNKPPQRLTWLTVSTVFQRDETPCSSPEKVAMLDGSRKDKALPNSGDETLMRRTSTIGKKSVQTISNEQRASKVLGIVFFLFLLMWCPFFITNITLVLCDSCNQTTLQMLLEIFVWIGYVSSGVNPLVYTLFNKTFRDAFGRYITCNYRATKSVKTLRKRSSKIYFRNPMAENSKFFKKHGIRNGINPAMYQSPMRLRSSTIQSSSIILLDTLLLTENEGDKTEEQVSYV

| Compound | EC50 [1] [nM] | Emax ([2]; filed as agonist) [%] | EC50 ([3]; read-out: EC50) [nM] | Emax ([4]; filed as agonist) [%] | Emax [5] [%] | EC50 [6] [nM] | Emax [4] [%] | Emax [2] [%] | EC50 ([3]; read-out: pEC50 (converted)) [nM] |
| --- | --- | --- | --- | --- | --- | --- | --- | --- | --- |
| Cc1ccc(C2NCCc3c2[nH]c2ccc(Cl)cc32)c(C)c1 (stereo unspecified) | 977 | 99.2 | 407 | 69.8 | 89.4 | 562 |  |  |  |
| COc1ccc(C2NCCc3c2[nH]c2ccc(Cl)cc32)cc1OC (stereo unspecified) | 34 | 99.3 | 123 | 96 | 102 | 81 |  |  |  |
| Oc1c(Cl)cccc1C1NCCc2c1[nH]c1ccc(Cl)cc21 (stereo unspecified) | 106 | 94 | 176 | 70.1 | 95.9 | 336 |  |  |  |
| Cc1ccc(O)c(C2NCCc3c2[nH]c2ccc(F)cc32)c1 (stereo unspecified) | 316 | 99.2 | 446 |  | 115 | 1230 | 36.8 |  |  |
| Cc1ccc(C2NCCc3c2[nH]c2ccc(F)cc32)c(C)c1 (stereo unspecified) | 537 | 104 | 159 | 47.8 | 107 | 363 |  |  |  |
| Cc1ccc(O)c(C2NCCc3c2[nH]c2ccc(Cl)cc32)c1 (stereo unspecified) | 4270 |  |  |  | 106 |  |  |  |  |
| Cc1ccc(C2NCCc3c2[nH]c2ccc(O)cc32)cc1 (stereo unspecified) |  | 95 | 1130 |  |  | 312 | 11.2 |  |  |
| Clc1ccc2[nH]c3c(c2c1)CCNC3c1ccccc1Cl (stereo unspecified) |  | 109 | 12.6 | 95.3 |  | 12.8 |  |  |  |
| Oc1ccc2[nH]c3c(c2c1)CCNC3c1cccs1 (stereo unspecified) |  | 97 | 294 | 44.7 |  | 346 |  |  |  |
| Clc1ccc2[nH]c3c(c2c1)CCNC3c1cncnc1 (stereo unspecified) |  |  | 420 |  |  | 898 | 32.1 | 38.7 |  |
| Fc1ccc2[nH]c3c(c2c1)CCNC3c1cccnc1F (stereo unspecified) |  |  | 4030 | 40.9 |  | 390 |  | 30.2 |  |
| Oc1ccc2[nH]c3c(c2c1)CCNC3C1CCCCC1 (stereo unspecified) |  |  | 959 | 74.1 |  | 281 |  | 28.4 |  |
| COc1ccc2cc(C3NCCc4c3[nH]c3ccc(Cl)cc43)ccc2c1 (stereo unspecified) |  | 93.7 | 1060 | 66.8 |  | 1320 |  |  |  |
| CCC1NCCc2c1[nH]c1ccc(F)cc21 (stereo unspecified) |  | 96.2 | 200 | 75.4 |  | 597 |  |  |  |
| Cc1cccc(C2NCCc3c2[nH]c2ccc(Cl)cc32)c1 (stereo unspecified) |  | 89.1 | 256 | 63.1 |  | 481 |  |  |  |
| COc1ccc(OC)c(C2NCCc3c2[nH]c2ccc(F)cc32)c1 (stereo unspecified) | 588 | 55.3 | 1600 |  | 52.1 | > 10000 |  |  |  |
| Fc1ncccc1C1NCCc2c1[nH]c1ccc(Cl)cc21 (stereo unspecified) |  | 75.2 | 1060 | 56.1 |  | 346 |  |  |  |
| Fc1ccc2[nH]c3c(c2c1)CCNC3c1ccccc1F (stereo unspecified) |  | 81 | 1010 | 48.9 |  | 302 |  |  |  |
| Clc1ccc2[nH]c3c(c2c1)CCNC3c1ccc(Br)s1 (stereo unspecified) |  | 104 | 447 | 62.4 |  | 912 |  |  |  |
| Oc1ccc(Cl)cc1C1NCCc2c1[nH]c1ccc(Cl)cc21 (stereo unspecified) | 2000 | 58.9 | 3560 |  | 111 | > 10000 |  |  |  |

| Compound | EC50 [1] [nM] | Emax ([2]; filed as agonist) [%] | EC50 ([3]; read-out: EC50) [nM] | Emax ([4]; filed as agonist) [%] | Emax [5] [%] | EC50 [6] [nM] | Emax [4] [%] | Emax [2] [%] | EC50 ([3]; read-out: pEC50 (converted)) [nM] |
| --- | --- | --- | --- | --- | --- | --- | --- | --- | --- |
| Fc1ccc2[nH]c3c(c2c1)CCNC3c1ccccc1Br (stereo unspecified) |  | 75.1 | 2100 |  |  | 98 | 10.5 |  |  |
| Oc1ccc2[nH]c3c(c2c1)CCNC3c1cncnc1 (stereo unspecified) |  | 83.3 |  | 89.3 |  | 800 |  |  | 2950 |
| Oc1cccc(C2NCCc3c2[nH]c2ccc(O)cc32)c1 (stereo unspecified) |  | 95.4 | 148 | 93.4 |  | 223 |  |  |  |
| Oc1cccc(C2NCCc3c2[nH]c2ccc(Cl)cc32)c1 (stereo unspecified) |  | 67.4 | 688 | 49.1 |  | 3300 |  |  |  |
| Fc1ccc2[nH]c3c(c2c1)CCNC3CCc1ccccc1 (stereo unspecified) |  | 91.3 | 467 |  |  | 812 | 31.7 |  |  |
| Clc1ccc2[nH]c3c(c2c1)CCNC3c1ccc2ccccc2c1 (stereo unspecified) |  | 102 | 24.5 | 96.5 |  | 15.1 |  |  |  |
| Oc1ccc2[nH]c3c(c2c1)CCNC3Cc1ccccc1 (stereo unspecified) |  | 100 | 481 | 59.2 |  | 288 |  |  |  |
| Fc1ccc2[nH]c3c(c2c1)CCNC3C1CCCCC1 (stereo unspecified) |  | 103 | 20.4 | 87.3 |  | 91.2 |  |  |  |
| Cc1noc(C)c1C1NCCc2c1[nH]c1ccc(F)cc21 (stereo unspecified) |  | 111 | 50.1 | 90.7 |  | 239 |  |  |  |
| Fc1ccc2[nH]c3c(c2c1)CCNC3c1ccccc1 (stereo unspecified) |  | 102 | 22.4 | 86.5 |  | 88.5 |  |  |  |
| Cc1cc(C2NCCc3c2[nH]c2ccc(Cl)cc32)sc1Br (stereo unspecified) |  | 118 | 173 | 97.1 |  | 776 |  |  |  |
| Cc1ccc(C2NCCc3c2[nH]c2ccc(F)cc32)cc1 (stereo unspecified) |  | 85.4 | 2060 |  |  | 208 | 39.9 |  |  |
| Clc1ccc2[nH]c3c(c2c1)CCNC3C(c1ccccc1)c1ccccc1 (stereo unspecified) |  | 106 | 3240 | 88.1 |  | 1350 |  |  | 0.324 |
| Clc1ccc2[nH]c3c(c2c1)CCNC3C1CCCCC1 (stereo unspecified) |  | 98.5 | 95.5 | 59.9 |  | 295 |  |  |  |
| Clc1ccc2[nH]c3c(c2c1)CCNC3c1ccccc1Br (stereo unspecified) |  | 98.4 | 95.2 | 91.4 |  | 403 |  |  |  |
| Oc1ccc(C2NCCc3c2[nH]c2ccc(Cl)cc32)cc1 (stereo unspecified) |  | 99.4 | 105 | 103 |  | 93.8 |  |  |  |
| Oc1ccc2[nH]c3c(c2c1)CCNC3c1cc(F)ccc1O (stereo unspecified) |  | 101 | 77 | 88.4 |  | 216 |  |  |  |
| COc1ccccc1C1NCCc2c1[nH]c1ccc(F)cc21 (stereo unspecified) |  | 94.3 | 75.4 | 43.1 |  | 126 |  |  |  |
| Clc1ccc2[nH]c3c(c2c1)CCNC3c1ccccc1 (stereo unspecified) |  | 98 | 68.9 | 83.9 |  | 248 |  |  |  |
| Cc1noc(C)c1C1NCCc2c1[nH]c1ccc(Cl)cc21 (stereo unspecified) |  | 104 | 191 | 84.5 |  | 513 |  |  |  |

Reference: ChEMBL document CHEMBL5131517 (ACS Med Chem Lett, 2022)
